Counter-ions that a name gives are not always drawn.
Tests used:
interferon (α) = assay: Cytokine Induction in Human Cells: interferon (α) secreted by PBMCs, ELISA; assay type: cell-based; settings: incubated 18 to 24 hours, lowest concentration found to induce interferon
From the text: (§1) An in vitro human blood cell system was used to assess cytokine induction by compounds of the invention. Activity is based on the measurement of interferon and tumor necrosis factor (α) (IFN and TNF, respectively) secreted into culture media as described by Testerman et. al. In “Cytokine Induction by the Immunomodulators Imiquimod and S-27609”, Journal of Leukocyte Biology, 58, 365–372 (September, 1995).
(§2) Whole blood is collected by venipuncture into EDTA vacutainer tubes from healthy human donors. Peripheral blood mononuclear cells (PBMCs) are separated from whole blood by density gradient centrifugation using Histopaque®-1077 (Sigma Chemicals, St. Louis, Mo.). The PBMCs are suspended at 3–4×10^6 cells/mL in RPMI 1640 medium containing 10% fetal bovine serum, 2 mM L-glutamine and 1% penicillin/streptomycin solution (RPMI complete). The PBMC suspension is added to 48 well flat bottom sterile tissue culture plates (Costar, Cambridge, Mass. or Becton Dickinson Labware, Lincoln Park, N.J.) containing an equal volume of RPMI complete media containing test compound.
(§3) The compounds are solubilized in dimethyl sulfoxide (DMSO). The DMSO concentration should not exceed a final concentration of 1% for addition to the culture wells.
(§4) The solution of test compound is added at 60 μM to the first well containing RPMI complete and serial (three fold or ten fold) dilutions are made. The PBMC suspension is then added to the wells in an equal volume, bringing the test compound concentrations to the desired range. The final concentration of PBMC suspension is 1.5–2×10^6 cells/mL. The plates are covered with sterile plastic lids, mixed gently and then incubated for 18 to 24 hours at 37° C. in a 5% carbon dioxide atmosphere.
(§5) Following incubation the plates are centrifuged for 5–10 minutes at 1000 rpm (˜200×g) at 4° C. The cell culture supernatant is removed with a sterile polypropylene pipette and transferred to sterile polypropylene tubes. Samples are maintained at −30 to −70° C. until analysis. The samples are analyzed for interferon (α) and tumor necrosis factor (α) by ELISA
Interferon (α) concentration is determined by ELISA using a Human Multi-Species kit from PBL Biomedical Laboratories, New Brunswick, N.J.
(§6) The table below lists the lowest concentration found to induce interferon and the lowest concentration found to induce tumor necrosis factor for each compound.

[1] = system: tumor necrosis factor (α); assay: Cytokine Induction in Human Cells: tumor necrosis factor (α) secreted by PBMCs, ELISA; assay type: cell-based; settings: incubated 18 to 24 hours, lowest concentration found to induce tumor necrosis factor; for minimal effective concentration: PBMC
From the text: as §1, §2, §3, §4, §5
Tumor necrosis factor (α) (TNF) concentration is determined using ELISA kits available from Genzyme, Cambridge, Mass.; R&D Systems, Minneapolis, Minn.; or Pharmingen, San Diego, Calif.
as §6

Structure (SMILES) | minimal effective concentration (interferon (α); PBMC) | minimal effective concentration [1] | melting point | minimal effective concentration (interferon (α)) | Lowest Effective Concentration (μM) Tumor Necrosis Factor [1]
COCCc1nc2c(N)nc3ccccc3c2n1CCCNS(C)(=O)=O [Example 247, N-{3-[4-amino-2-(2-methoxyethyl)-1H-imidazo[4,5-c]quinolin-1-yl]propyl}methanesulfonamide] | 0.01 µM | 0.01 µM | 193 to 194 °C | – | –
CCOCc1nc2c(N)nc3ccccc3c2n1CCCNS(C)(=O)=O [Example 255, N-{3-[4-amino-2-(ethoxymethyl)-1H-imidazo[4,5-c]quinolin-1-yl]propyl}methanesulfonamide] | 0.12 µM | 3.33 µM | 208.2 to 209.6 °C | – | –
CCCCc1nc2c(N)nc3ccccc3c2n1CCNS(=O)(=O)c1ccc(C)cc1 [Example 264, N-[2-(4-amino-2-butyl-1H-imidazo[4,5-c]quinolin-1-yl)ethyl]-4-methylbenzenesulfonamide] | 1.11 µM | 1.11 µM | 187 to 188 °C | – | –
CCCCc1nc2c(N)nc3ccccc3c2n1CCCCN1CCCS1(=O)=O [Example 267, 2-butyl-1-[4-(1,1-dioxidoisothiazolidin-2-yl)butyl]-1H-imidazo[4,5-c]quinolin-4-amine] | 0.01 µM | 0.12 µM | 173 to 176 °C | – | –
CCCc1nc2c(N)nc3ccccc3c2n1CCCCNS(C)(=O)=O [Example 235, N-[4-(4-amino-2-propyl-1H-imidazo[4,5-c]quinolin-1-yl)butyl]methanesulfonamide] | 0.04 µM | 1.11 µM | 186.5 to 187.9 °C | – | –
CCCCc1nc2c(N)nc3ccccc3c2n1CCCNS(=O)(=O)c1cccc2c(N(C)C)cccc12 [Example 245, N-[3-(4-amino-2-butyl-1H-imidazo[4,5-c]quinolin-1-yl)propyl]-5-(dimethylamino)naphthalene-1-sulfonamide] | 3.33 µM | > 30 µM | 216.5 to 217.5 °C | – | –
Cc1nc2c(N)nc3ccccc3c2n1CCCNS(C)(=O)=O [Example 258, N-[3-(4-amino-2-methyl-1H-imidazo[4,5-c]quinolin-1-yl)propyl]methanesulfonamide] | 0.37 µM | 10 µM | 236 to 238 °C | – | –
CCCCCCc1nc2c(N)nc3ccccc3c2n1CCCCNS(C)(=O)=O [Example 241, N-[4-(4-amino-2-hexyl-1H-imidazo[4,5-c]quinolin-1-yl)butyl]methanesulfonamide] | 0.12 µM | 1.11 µM | 170.2 to 171.1 °C | – | –
CS(=O)(=O)NCCCn1c(CCCOc2ccccc2)nc2c(N)nc3ccccc3c21 [Example 261, N-{3-[4-amino-2-(3-phenoxypropyl)-1H-imidazo[4,5-c]quinolin-1-yl]propyl}methanesulfonamide] | > 30 µM | 10 µM | 176 to 178 °C | – | –
COCCc1nc2c(N)nc3ccccc3c2n1CCCNS(=O)(=O)c1cccc2c(N(C)C)cccc12 [Example 257, N-{3-[4-amino-2-(2-methoxyethyl)-1H-imidazo[4,5-c]quinolin-1-yl]propyl}-5-(dimethylamino)naphthalene-1-sulfonamide] | 1.11 µM | 3.33 µM | 210 to 215 °C | – | –
COCCc1nc2c(N)nc3ccccc3c2n1CC(C)(C)CNS(C)(=O)=O [Example 256, N-{3-[4-amino-2-(2-methoxyethyl)-1H-imidazo[4,5-c]quinolin-1-yl]-2,2-dimethylpropyl}methanesulfonamide] | 0.01 µM | 0.04 µM | 204 to 206 °C | – | –
CCCCCCc1nc2c(N)nc3ccccc3c2n1CCCCNS(=O)(=O)c1ccccc1 [Example 234, N-[4-(4-amino-2-hexyl-1H-imidazo[4,5-c]quinolin-1-yl)butyl]benzenesulfonamide] | 1.11 µM | 1.11 µM | 84.8 to 85.4 °C | – | –
COCCc1nc2c(N)nc3ccccc3c2n1CCCNS(=O)(=O)c1ccccc1 [Example 249, N-(3-[4-amino-2-(2-methoxyethyl)-1H-imidazo[4,5-c]quinolin-1-yl]propyl)benzenesulfonamide] | 0.01 µM | 1.11 µM | 149 to 151 °C | – | –
CCCCc1nc2c(N)nc3ccccc3c2n1CCCCCCCCNS(C)(=O)=O [Example 244, N-[8-(4-amino-2-butyl-1H-imidazo[4,5-c]quinolin-1-yl)octyl]methanesulfonamide] | 0.01 µM | 0.01 µM | 121 to 124 °C | – | –
CCCCc1nc2c(N)nc3ccccc3c2n1CCCNS(=O)(=O)c1ccccc1 [Example 240, N-[3-(4-amino-2-butyl-1H-imidazo[4,5-c]quinolin-1-yl)propyl]benzenesulfonamide] | 0.37 µM | 3.33 µM | 210.5 to 212 °C | – | –
CCCCc1nc2c(N)nc3ccccc3c2n1CCCNS(C)(=O)=O [Example 239, N-[3-(4-amino-2-butyl-1H-imidazo[4,5-c]quinolin-1-yl)propyl]methanesulfonamide] | 0.01 µM | 1.11 µM | 239.2 to 240.8 °C | – | –
CCCCCc1nc2c(N)nc3c(c2n1CCCCNS(C)(=O)=O)CCCC3 [Example 254, N-[4-(4-amino-2-pentyl-6,7,8,9-tetrahydro-1H-imidazo[4,5-c]quinolin-1-yl)butyl]methanesulfonamide] | 0.01 µM | 1.11 µM | 167 to 167.8 °C | – | –
Cc1nc2c(N)nc3c(c2n1CCCCNS(C)(=O)=O)CCCC3 [Example 263, N-[4-(4-amino-2-methyl-6,7,8,9-tetrahydro-1H-imidazo[4,5-c]quinolin-1-yl)butyl]methanesulfonamide hydrochloride] | 0.12 µM | > 30 µM | – | – | –
CCCCc1nc2c(N)nc3ccccc3c2n1CCNS(C)(=O)=O [Example 265, N-[2-(4-amino-2-butyl-1H-imidazo[4,5-c]quinolin-1-yl)ethyl]methanesulfonamide] | 0.01 µM | 0.04 µM | 210 to 211 °C | – | –
CCCc1nc2c(N)nc3ccccc3c2n1CCCCNS(=O)(=O)c1ccccc1 [Example 233, N-[4-(4-amino-2-propyl-1H-imidazo[4,5-c]quinolin-1-yl)butyl]benzenesulfonamide] | 0.37 µM | 1.11 µM | 158.8 to 160.8 °C | – | –
CCc1nc2c(N)nc3ccccc3c2n1CCCCNS(=O)(=O)c1ccccc1 [Example 232, N-[4-(4-amino-2-ethyl-1H-imidazo[4,5-c]quinolin-1-yl)butyl]benzenesulfonamide] | 0.12 µM | 1.11 µM | 180.6 to 182 °C | – | –
COCCc1nc2c(N)nc3ccccc3c2n1CCCCCCCCNS(=O)(=O)c1ccccc1 [Example 242, N-{8-[4-amino-2-(2-methoxyethyl)-1H-imidazo[4,5-c]quinolin-1-yl]octyl}benzenesulfonamide] | 0.01 µM | 0.01 µM | 146 to 149 °C | – | –
CS(=O)(=O)NCCCCn1cnc2c(N)nc3c(c21)CCCC3 [Example 72, N-[4-(4-Amino-6,7,8,9-tetrahydro-1H-imidazo[4,5-c]quinolin-1-yl)butyl]methanesulfonamide Trifluoroacetate] | – | – | – | 3.33 µM | ** (no induction was seen at any of the tested concentrations (0.12, 0.37, 1.11, 3.33, 10 and 30 μM))
COCCc1nc2c(N)nc3ccccc3c2n1CCCCCCCCNS(C)(=O)=O [Example 243, N-{8-[4-amino-2-(2-methoxyethyl)-1H-imidazo[4,5-c]quinolin-1-yl]octyl}methanesulfonamide] | 0.01 µM | 0.01 µM | 109 to 110 °C | – | –
CCCCCc1nc2c(N)nc3ccccc3c2n1CCCCNS(=O)(=O)c1ccccc1 [Example 251, N-[4-(4-amino-2-pentyl-1H-imidazo[4,5-c]quinolin-1-yl)butyl]benzenesulfonamide] | 0.12 µM | 10 µM | – | – | –
